For test [1], the system named is heart failure (HF) induced by transaortic constriction (TAC). As to the kind of experiment: Transaortic constriction (TAC) heart failure in mice, echocardiography; chromonar or vehicle from end of week 13. In kind it is in vivo.
Source text: Ejection fraction is the percentage of blood in the left ventricular chamber that the heart ejects per beat. Under normal conditions, the heart will eject 60-70% of left ventricular volume with each contraction, but the failing heart ejects considerably less. After the control measurements to establish baseline % EF, mice underwent surgery to constrict the aortic artery. This procedure, termed transaortic constriction (TAC), causes the heart to pump against a high blood pressure, which causes it to fail. […] At the end of the 13th week, mice were either treated with chromonar (as continuous infusion) or a vehicle (that the chromonar was dissolved in).
Another way of assessing the effectiveness of a therapy in heart failure is to determine how much volume is in the left ventricle before it begins to contract (termed diastolic volume). When contractile function of the heart declines, this volume progressively increases. This volume is important for a number of reasons. First, it is directly related to energy consumption of the heart (as the volume increases energy consumption is increased). Second, if this volume becomes too large, the heart muscle can be overstretched and will contract even more poorly—this is referred to as decompensated heart failure. Third, as the diastolic volume increases pressures and volumes “upstream” in the atrium and pulmonary vessels will also increase. […]
Test [2] concerns heart failure induced by TAC (transaortic constriction). The following applies: TAC mice, treatment started at week 5; FIG. 7.
In a further test the test system is Takotsubo Syndrome. As to the kind of experiment: Takotsubo Syndrome produced by TAC, ventricular function, FIG. 11. In kind it is in vivo, mice. As to conditions: 4 weeks, 2 weeks of treatment.
For test [3], the system named is mice with heart failure (HFrEF). As to the kind of experiment: Treadmill exercise time and whole body oxygen consumption in mice with heart failure, FIG. 9.
In test [4] the test system is myocardial blood flow in the failing heart. As to the kind of experiment: Myocardial blood flow by myocardial contrast echocardiography during norepinephrine cardiac stress test in HF mice. In kind it is in vivo. As to conditions: FIG. 2 right.
Procedure: After the control measurements to establish baseline % EF, mice underwent surgery to constrict the aortic artery. This procedure, termed transaortic constriction (TAC), causes the heart to pump against a high blood pressure, which causes it to fail. […] At the end of the 13th week, mice were either treated with chromonar (as continuous infusion) or a vehicle (that the chromonar was dissolved in).
Myocardial contrast echocardiography (MCE) was used to measure myocardial blood flow in both groups of mice. […] Mice were determined to be in HF when EF<40%). After the development of failure, myocardial blood flow was measured during a cardiac stress test produced by infusion of norepinephrine to increase myocardial metabolic demands. A plot of cardiac work vs MBF was made for the sham mice and for those in HF. To estimate metabolic demands, the index wall stress rate product (WSRP) was developed.

This is an account of results in patent publication US11324748B2, “Vasodilators for treatment of heart failure” (NORTHEAST OHIO MEDICAL UNIVERSITY, priority 2017, dated 2022).

Where a name gives a salt, the structure may show the parent alone.

`CCOC(=O)COc1ccc2c(C)c(CCN(CC)CC)c(=O)oc2c1` [chromonar, 14.3-(beta-Diethylaminoethyl)-4-methyl-7-(carbethoxymethoxy)-coumarin hydrochloride]: in test [1] (treated at end of 13th week, continuous infusion, FIG. 2 left), the “cardiac function (ejection fraction, % EF)” value is listed as “restored cardiac function—nearly back to the control levels”. Further, in test [1] (treatment at end of week 13, FIG. 3), the “Left Ventricular Diastolic Volume” value is listed as “diastolic volumes decreased”. Besides, the “cardiac function (EF %)” value in test [2] is “improved dramatically”. Besides, the “ventricular function (EF %)” value in the test on Takotsubo Syndrome is “improved ventricular function greatly”. Moreover, the “total exercise time on a treadmill” value in test [3] is approximately 70 min. For the same compound, the “relationship between MBF and cardiac work (WSRP)” value in test [4] (failing heart after chromonar) was “reconnects the relationship between work and flow in the heart”. The “myocardial blood flow (MBF)” value in test [4] (failing heart, during changes in cardiac work (WSRP)) was “flow is higher”.
For `CC(C)NCC(O)COc1cccc2ccccc12` (stereo not shown) [propranolol], the “cardiac function (EF %)” value in test [2] was “continued to decrease”. Further, the “total exercise time on a treadmill” value in test [3] is “about 45 minutes”. Also, in test [3] (within 5 minutes of exercise), the “whole body oxygen consumption” value is listed as “lower oxygen consumption than the chromonar treated group”.
